Consider seven compounds from PMC12703457, “Dynamic Anchoring of Peptides to the Extracellular Matrix Enabled by Boronic Acid” (Chembiochem, 2025).

The subject of one series is fibronectin. As to the kind of experiment: SDS‐PAGE of fibronectin incubated with boronic acid dye. The format is binding. To be noted: physiological pH; distinct fluorescence at 280 kDa. The protocol: Figure 1 A) Fluorescent microscopy of CDM. Green channel: Staining with 10 μM FL2 is shown. Red channel: Staining with a primary antibody (rabbit; Anti‐fibronectin) and secondary antibody (Anti‐Rabbit IgG, CFTM633) is shown. Third channel: Both channels are merged. The negative control was only stained with the antibodies. Every CDM with FL2 was washed several times with either pH 4.1, pH 7.4, or pH 9.4. B) SDS‐PAGE of fibronectin incubated with FL2 under different pH conditions. (1) FL2 incubation at pH 7.4. (2) FL2 incubation at pH 4.1. (3) Coomassie stain for fibronectin. M = molecular standard.
For quantification, fibronectin was immobilized on Enzyme‐Linked Immunosorbent Assay (ELISA) plates before incubation with FL2. Surfaces were similarly treated with acidic, neutral, and basic conditions, and the remaining fluorescence of FL2 was quantified with each washing step (Figure S1, Supporting Information).
SDS‐PAGE was performed as described.^[ [27] ^] For the separation of small molecular weight peptides, tricine‐gel‐electrophoresis (Novex 10–20% Tricine Gel, 1.0 mm × 12 well, Invitrogen by Thermo Fisher Scientific) was performed, using Mini Gel Tanks from Invitrogen under standardized conditions. […] The gel was destained with demineralized water or destaining buffer (10% 10x ws buffer, 20% methanol, 70% Mili‐Q water) and captured using a Gel‐Reader from BioRad.

Series [1] can be described thus: ARS competition assay with D‐glucamine. The format is binding. To be noted: for Interaction with D‐glucamine in ARS competition assay: fluorescence decay at 572 nm, rising D‐glucamine concentrations, pH 7.4, n = 3; for Association constant K eq with D‐glucamine: ARS competition assay, pH 7.4, 0.1 M phosphate buffer, fluorescence at 572 nm, average of triplicate runs.
Experimental: (§1) Affinity toward different monosaccharides was tested quantitatively by an Alizarin Red S (ARS) competition assay. ARS spectroscopic properties change upon the formation of a boronic ester with a boronic acid, resulting in fluorescence.^[ [4] ^, [19] ^] Additionally, the absorbance maximum of ARS shifts to shorter wavelengths upon ester formation, resulting in a color shift from red to orange, which facilitates the recognition of the formed bond (Figures S3 and S4, Supporting Information).
(§2) The assay was performed on a TECAN reader, Infinite M Plex, set up with 96‐well plates (Thermo Scientific, Nr. 137,103).

For a further series, the target named is T1, myostatin (Homo sapiens, UniProt O14793).
T1 construct: purchased Bio-techne (Minneapolis)
T1 sequence (O14793 267-375): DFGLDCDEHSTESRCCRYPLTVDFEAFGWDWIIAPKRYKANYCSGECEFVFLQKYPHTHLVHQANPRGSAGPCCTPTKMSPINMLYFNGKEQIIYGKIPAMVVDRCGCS
As to the kind of experiment: Myostatin inhibition assay, SMAD luciferase reporter in HEK SBE cells. The format is cell-based.

Series [2] is described as follows: Alizarin Red S (ARS) assay, association of boronic acid with ARS. The format is binding. The following applies: for Association constant K eq with ARS: ARS assay, pH 7.4, 0.1 M phosphate buffer, fluorescence at 572 nm, average of triplicate runs.
Experimental: Affinity toward different monosaccharides was tested quantitatively by an Alizarin Red S (ARS) competition assay. ARS spectroscopic properties change upon the formation of a boronic ester with a boronic acid, resulting in fluorescence.^[ [4] ^, [19] ^] […] The affinity of aryl boronic acid to 1,2‐diols is known to be dependent on modifications of the underlying benzene.
Series [3] can be described thus: ARS competition assay with D‐(‐)‐fructose. To be noted: for Association constant K eq with D‐(‐)‐fructose: ARS competition assay, pH 7.4, 0.1 M phosphate buffer, fluorescence at 572 nm, average of triplicate runs. The format is binding.
Experimental: as §1, §2
Series [4] in a line: ARS competition assay with D‐mannitol. The format is binding. The following applies: for Association constant K eq with D‐mannitol: ARS competition assay, pH 7.4, 0.1 M phosphate buffer, fluorescence at 572 nm, average of triplicate runs.
Experimental: as §1, §2
Series [5] can be described thus: UV‐VIS spectra, shift of ARS absorbance maximum upon ester formation. The format is binding. To be noted: UV‐VIS spectra in the presence of ARS. An excerpt: As a positive control, we used 4‐(dihydroxyboryl)benzoic acid coupled to the hydrophilic polymer PEG of 2000 Da, with a similar molecular weight. […] We continued to examine the binding of CBPA‐PEG‐MI to ARS in the presence of D‐glucamine, D‐(‐)‐fructose and D‐mannitol as a competition assay as outlined above (Figure 4B, Figure S11, Supporting Information).
Figure S10: UV-VIS spectra of various peptides bound to ARS or glucamine. CPBA was used as a positive control, while ARS serves as a negative control. (A) UV-VIS-spectra of the peptide CPBA-MI in the presence of ARS- or glucamine. (B) UV-VIS-spectra of the peptide CPBA-PEG-MI in the presence of ARS- or glucamine. (C) UV-VIS-spectra of the peptide Acetyl-MI in the presence of ARS- or glucamine.
Figure S11: Fluorescence decay at 572 nm measured in an ARS competition assay with CPBA-PEG-MI and the negative control acetyl-MI in the presence of rising concentrations of fructose (A) and mannitol (B) as model saccharides at pH 7.4.
Data are shown as mean ± STDEV (n = 3). […]

The conditions of series [6]: cited from earlier work. The protocol:
Binding constants of boronic acids and diols have been previously linked to their pKA and pH environment, with phenylboronic acid (pKA = 8.8) showing a binding optimum with ARS at a pH of 7 (1.1 mM^−1).^[ [20] ^]

The subject of series [7] is cell‐derived decellularized extracellular matrices (CDMs) from NIH‐3T3 fibroblasts. Briefly: Fluorescence imaging of CDMs with CPBA‐NQEQVSPL‐5/6‐carboxyrhodamine 110. The format is binding, murine. The following applies: fluorescence microscopy. The protocol: The hydrophilic PEG6 linker within the peptide structure was crucial to ensure sufficient water solubility.
For visualization of fibronectin, the CDMs were first blocked using 1x Roti‐Block for 60 min at RT and washed once with PBS. A combination of Rabbit Anti‐Fibronectin antibody (F3648) (1:400 in PBS, overnight at 4 °C) and Anti‐rabbit IgG (H + L), F(ab’)2 Fragment (Alexa Fluor 647 Conjugate) 4414 (1:200 in PBS, 90 min at RT) was used. […] The dye was removed, and the matrix was washed several times with one of […] different buffers (carbonate/bicarbonate, pH 9.4; 1x PBS, pH 7.4; 1x PBS, pH 8.0, and sodium‐acetate, pH 4.1). Images were taken on an Axio Observer.Z1 microscope equipped with a 63x Plan‐Apochromat […]/1.40 Oil DIC M77 objective (Zeiss), 38 HE Green Fluorescent Reflector (λex = 450–490 nm λem = 500–550 nm), 50 Cy5 Reflector (λex = 625–655 nm λem = 665–715 nm) and a mercury vapor short‐arc lamp.
Figure S9: (A) Fluorescent microscopy of CDM. Green channel: Staining with CBPA-[…]-5/6-Carboxyrhodamine
110 is shown. Red channel: Staining with a primary antibody (rabbit; Anti-fibronectin) and secondary antibody (Anti-Rabbit
IgG, AF647) is shown. Third channel: Both channels are merged. The negative control was only stained with the antibodies.
Every CDM with the CPBA-Peptide was washed several times with either pH 4.1, pH 7.4, pH 8.0 or pH 9.4. […]

The mark [8] stands for this setting: fluorescence decay at 572 nm, rising sugar concentrations, pH 7.4, n = 3.

“And” between values parts separate entries of the source, which are not always exact repeats. Equal entries are not always repeated. Where two headings read alike, the source gives them in different places. Bridge positions count the residues as written; N and C are the ends. Square brackets hold non-standard residues; d marks the D form. Peptide text beside a SMILES is read from it. * marks the point of attachment. Benzoyl(4-B(OH)2) = O=C(c1ccc(B(O)O)cc1)*; PEG6 = NCCOCCOCCOCCOCCOCCOCCC(=O)O

Experimental for myostatin: D) Myostatin inhibition by different MI peptides as determined via SMAD luciferase reporter with HEK SBE cells. 100 % activity corresponds to 4 nM myostatin. Data are shown as mean ± STDEV (n = 3).
The inhibition of all three MI peptides by myostatin was tested using a reporter gene luciferase assay in HEK293 cells, which monitored SMAD phosphorylation in response to varying myostatin concentrations, as described.^[ [24] ^]
HEK SBE cells (HEK‐293 cells stably transfected with a pGl3ti vector containing a Smad binding element at the promoter of the firefly luciferase gene and a hygromycin resistance gene) were used as previously described.^[ [24] ^] […] The total protein concentration of each sample was determined by the Bradford Protein concentration assay. […] The absorbance was measured with a plate reader (Infinite 200 PRO, Tecan). […] The injector of the plate reader was primed with luciferase assay reagent. The plate reader was programmed to automatically inject 100 μL of the reagent into each well and immediately measure the luminescence for 10 s. […] Relative light units per μg of total protein were calculated to analyze the inhibition of myostatin by all three MI peptides.

Regarding `O=C1c2ccccc2C(=O)c2c1cc(S(=O)(=O)O)c(O)c2O` [ARS, Alizarin Red S], the “Binding to fibronectin after gel electrophoresis” value in the series on fibronectin is “confirmed”.
Regarding `CSCC[C@@H]1NC(=O)[C@H](Cc2c[nH]c3ccccc23)NC(=O)[C@@H]2CCCN2C(=O)[C@H](Cc2c[nH]c3ccccc23)NC(=O)[C@H](CCCNC(=N)N)NC(=O)[C@H]([C@@H](C)O)NC(=O)[C@@H](NC(=O)[C@H](CCC(N)=O)NC(=O)CNC(=O)[C@H](CCC(N)=O)NC(=O)[C@@H](NC(=O)[C@H](C)NC(=O)[C@@H](NC(C)=O)C(C)C)[C@@H](C)O)CSSC[C@@H](C(=O)N2CCC[C@H]2C(=O)N2CCC[C@H]2C(=O)N[C@@H](CCC(N)=O)C(=O)NCC(=O)N[C@@H](Cc2c[nH]c3ccccc23)C(=O)NCC(=O)NCCOCCOCCOCCOCCOCCOCCC(N)=O)NC1=O` [Acetyl‐MI] (Ac-VATQGQCTRWPWMCPPQGWG[PEG6]-NH2; disulfide 7-14), the “Interaction with D‐glucamine in ARS competition assay” value in [1] is “nonbinding”. The IC50 on myostatin (HEK SBE luciferase reporter cells, 4 nM myostatin, 48 h, 37 °C, n = 3, read-out: IC50, inhibition of myostatin‐induced SMAD phosphorylation) came to 1.7 µM.
As to `O=C(O)c1ccc(B(O)O)cc1` [CPBA, 4‐Carboxy‐phenyl‐boronic acid, reference compound], in series [2], the “Association constant K eq with ARS” value was determined as 1.46 ± 0.3 mM⁻¹. The “Association constant K eq with D‐glucamine” value in [1] was 2.09 mM⁻¹ and 2.09 ± 0.6 mM⁻¹. Moreover, in series [3], the “Association constant K eq with D‐(‐)‐fructose” value is 0.11 ± 0.0 mM⁻¹. The “Association constant K eq with D‐mannitol” value in [4] turned out to be 0.08 ± 0.0 mM⁻¹.
For `CSCC[C@@H]1NC(=O)[C@H](Cc2c[nH]c3ccccc23)NC(=O)[C@@H]2CCCN2C(=O)[C@H](Cc2c[nH]c3ccccc23)NC(=O)[C@H](CCCNC(=N)N)NC(=O)[C@H]([C@@H](C)O)NC(=O)[C@@H](NC(=O)[C@H](CCC(N)=O)NC(=O)CNC(=O)[C@H](CCC(N)=O)NC(=O)[C@@H](NC(=O)[C@H](C)NC(=O)[C@@H](NC(=O)CCOCCOCCOCCOCCOCCOCCNC(=O)c2ccc(B(O)O)cc2)C(C)C)[C@@H](C)O)CSSC[C@@H](C(=O)N2CCC[C@H]2C(=O)N2CCC[C@H]2C(=O)N[C@@H](CCC(N)=O)C(=O)NCC(=O)N[C@@H](Cc2c[nH]c3ccccc23)C(=O)NCC(=O)NCCOCCOCCOCCOCCOCCOCCC(N)=O)NC1=O` [CPBA‐PEG‐MI] ({Benzoyl(4-B(OH)2)-PEG6}-VATQGQCTRWPWMCPPQGWG[PEG6]-NH2; disulfide 7-14), in series [1], the “Interaction with D‐glucamine in ARS competition assay” value is given as “strongest interaction”. Moreover, the “Displacement of ARS from the peptide complex by D‐(‐)‐fructose” value in series [3] (setting [8]) is “not able to displace ARS”. Further, in series [4] (setting [8]), the “Displacement of ARS from the peptide complex by D‐mannitol” value is “not able to displace ARS”. Further, the IC50 at myostatin came to 1.5 µM. For the same compound, the “Shift of the absorbance maximum of ARS upon ester formation” value in series [5] was “shift of the absorbance maximum of ARS to shorter wavelengths”.
For `OB(O)c1ccccc1` [phenylboronic acid], in series [6], the pKA is reported as 8.8. Also, the “Binding constant with ARS at binding optimum” value in series [6] (pH of 7) was 1.1 mM⁻¹.
As to CPBA–NQEQVSPL–5/6‐carboxyrhodamine 110, the “pH‐dependent binding to glycan structures of the ECM compared with FL2” value in series [7] (100 μM, three hours at pH 9.4, washed at pH 4.1, 7.4, 8.0 or 9.4) is given as “comparable pH‐dependent binding behavior”. In addition, in series [7] (pH 7.4 wash), the “Binding to CDM at pH 7.4 compared with FL2” value is listed as “quantitatively weaker”.
Turning to NQEQVSPL [CPBA‐peptide], in [2], the “Association constant K eq with ARS” value was found to be 2.35 ± 0.1 mM⁻¹. Further, the “Association constant with ARS relative to unconjugated CPBA” value in series [2] (pH 7.4, CPBA‐peptide versus CPBA) came to 1.6 fold. Moreover, in [1], the “Association constant K eq with D‐glucamine” value was 3.87 ± 0.7 mM⁻¹. Further, in [3], the “Association constant K eq with D‐(‐)‐fructose” value came to 0.29 ± 0.0 mM⁻¹. Besides, the “Association constant K eq with D‐mannitol” value in [4] is 0.22 ± 0.0 mM⁻¹.

By IC50 is commonly meant the concentration needed to halve the response being measured.
